As usually defined, the GI50 is the concentration that inhibits growth by half.

Here are results for ten compounds from ChEMBL document CHEMBL1201862, “PubChem BioAssay data set” (2004).

Some test systems named below: HL-60; CAKI-1; SK-MEL-2; HCT-116; OVCAR-8; SF-539; OVCAR-3; COLO 205; SK-MEL-5; CCRF-CEM; U-251; K562; HCT-15; LOX IMVI; SW-620; SN12C; MOLT-4; SK-OV-3; SF-268; SNB-75.
Common to all, as to test: DTP human tumour cell line panel, 48 h

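Growth conditions: 96-well plates. Treatment: test compound, 48 hours, 5 concentrations. Analysis: linear interpolation between bracketing concentrations; unreached endpoints set to highest concentration. GI50 is the concentration that inhibits growth by half.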 The source made the active and inactive calls. No stated cut-off is given here; in the data, active = GI50 up to about 1.1 µM and inactive = higher.

As for `CCCCCCCCCCCCCCCCOCC(COP(=O)([O-])OCC[N+](C)(C)C)OCCCCCCCCCCCCCCCC` (stereo not given), the GI50 in the assay on HL-60, in the assay on CAKI-1, with SK-MEL-2, in the assay on HCT-116, in the assay with OVCAR-8 and in the assay on SF-539 was > 100 µM (inactive) throughout. In addition, the GI50 in the assay on OVCAR-3, in the assay on COLO 205, in the assay on SK-MEL-5, in the assay with CCRF-CEM, with U-251 and in the assay with K562 was > 100 µM (inactive) throughout. Further, the GI50 with HCT-15 is greater than 100 µM; in the assay with LOX IMVI it was > 100 µM (inactive); with SW-620 it was > 100 µM (inactive); in the assay with SN12C, > 100 µM (inactive); with MOLT-4 it was > 100 µM (inactive); in the assay with SK-OV-3 it was > 100 µM (inactive). For the same compound, the GI50 with SF-268 and in the assay with SNB-75 was > 100 µM (inactive) each time.

For `CC(=O)Nc1ccc(C2=N/C(=C\c3ccc(Cl)c(Cl)c3)C(=O)O2)cc1`, the GI50 in the assay on HL-60, in the assay with CAKI-1, in the assay on SK-MEL-2, in the assay on HCT-116, in the assay with OVCAR-8 and in the assay on SF-539 was > 100 µM (inactive) each time. Also, the GI50 in the assay on OVCAR-3, in the assay with COLO 205, in the assay on SK-MEL-5, with CCRF-CEM, in the assay with U-251 and with K562 was > 100 µM (inactive) each time. The GI50 is greater than 100 µM in the assay on HCT-15; 30 µM (inactive) in the assay on LOX IMVI; > 100 µM (inactive) in the assay on SW-620; > 100 µM (inactive) in the assay with SN12C; > 100 µM (inactive) in the assay with MOLT-4; > 100 µM (inactive) in the assay with SK-OV-3. For the same compound, the GI50 is > 100 µM (inactive) in the assay on SF-268 and 64.6 µM (inactive) with SNB-75.

In the case of `NC(CCOCCP(=O)(O)CCC1C=CC=CC1)C(=O)O` (stereo not given), the GI50 in the assay on HL-60, with CAKI-1, in the assay on SK-MEL-2, with HCT-116, with OVCAR-8 and in the assay with SF-539 was > 100 µM (inactive) throughout. The GI50 in the assay with OVCAR-3, in the assay with COLO 205, in the assay on SK-MEL-5, with CCRF-CEM, in the assay with U-251 and with K562 was > 100 µM (inactive) throughout. The concentration for 50% growth inhibition (GI50) was greater than 100 µM with HCT-15; 73.5 µM (inactive) in the assay on LOX IMVI; > 100 µM (inactive) in the assay with SW-620; > 100 µM (inactive) in the assay on SN12C; > 100 µM (inactive) in the assay on MOLT-4; > 100 µM (inactive) with SK-OV-3. Besides, the results for the GI50 in the assay with SF-268 and in the assay on SNB-75 were > 100 µM (inactive) and 64 µM (inactive), respectively.

For `CN(c1ccccc1)c1c(-c2ccccc2)c(=O)oc2c1ccc1occc12`, the GI50 in the assay with HL-60 was 39.7 µM (inactive); in the assay on CAKI-1, 36.2 µM (inactive); with SK-MEL-2 it was > 100 µM (inactive); in the assay on HCT-116, > 100 µM (inactive); in the assay on OVCAR-8, > 100 µM (inactive); in the assay on SF-539, > 100 µM (inactive). The GI50 in the assay with OVCAR-3, in the assay with COLO 205, in the assay on SK-MEL-5, in the assay on CCRF-CEM, with U-251 and in the assay on K562 was > 100 µM (inactive) each time. Moreover, the GI50 in the assay on HCT-15 was greater than 88.5 µM; in the assay on LOX IMVI, > 100 µM (inactive); with SW-620, > 100 µM (inactive); in the assay with SN12C, > 100 µM (inactive); with MOLT-4, 22.2 µM (inactive); with SK-OV-3, > 100 µM (inactive). Besides, the GI50 with SF-268 and with SNB-75 was > 100 µM (inactive) throughout.

As for `CC(C)(CCCCC(C)(C)NC1=NCCO1)NC1=NCCO1`, the GI50 in the assay on HL-60, in the assay on CAKI-1, in the assay on SK-MEL-2, with HCT-116, in the assay on OVCAR-8 and with SF-539 was > 10 µM (inactive) in each case. The GI50 in the assay with OVCAR-3, with COLO 205, in the assay with SK-MEL-5, with CCRF-CEM, in the assay with U-251 and with K562 was > 10 µM (inactive) each time. The GI50 with HCT-15 was greater than 10 µM; in the assay with LOX IMVI it was > 10 µM (inactive); with SW-620, > 10 µM (inactive); in the assay on SN12C, > 10 µM (inactive); with MOLT-4, > 10 µM (inactive); in the assay on SK-OV-3, > 10 µM (inactive). The GI50 in the assay with SF-268 and with SNB-75 was > 10 µM (inactive) each time.

`O=C1C(=CNC(=S)c2ccccc2)C(=O)c2ccccc21`: the GI50 with HL-60 was 4.28 µM (inactive); in the assay with CAKI-1 it was 71.4 µM (inactive); in the assay with SK-MEL-2, 39.5 µM (inactive); with HCT-116 it was 46.7 µM (inactive); in the assay with OVCAR-8, 54.6 µM (inactive); in the assay with SF-539, 58.5 µM (inactive). Moreover, the GI50 is 76 µM (inactive) with OVCAR-3; 69.7 µM (inactive) in the assay with COLO 205; 58.9 µM (inactive) in the assay with SK-MEL-5; 25 µM (inactive) with CCRF-CEM; 64.9 µM (inactive) in the assay with U-251; 30.1 µM (inactive) in the assay with K562. For the same compound, the concentration for 50% growth inhibition (GI50) in the assay with HCT-15 was 32.1 µM; in the assay on LOX IMVI, 43.1 µM (inactive); with SW-620 it was 55.8 µM (inactive); in the assay with SN12C, 46.7 µM (inactive); in the assay with MOLT-4 it was 27.5 µM (inactive); with SK-OV-3, 21.7 µM (inactive). Also, the GI50 is 71.8 µM (inactive) in the assay with SF-268 and 58.9 µM (inactive) in the assay with SNB-75.

Regarding `NC1C2C=CC(C2)C1C(=O)O` (stereo not given), the GI50 is > 100 µM (inactive) in the assay on HL-60; > 100 µM (inactive) in the assay with CAKI-1; > 100 µM (inactive) with SK-MEL-2; > 100 µM (inactive) in the assay on HCT-116; > 100 µM (inactive) with OVCAR-8; 9.08 µM (inactive) with SF-539. Besides, the GI50 in the assay with OVCAR-3, with COLO 205, in the assay with SK-MEL-5, in the assay on CCRF-CEM, in the assay on U-251 and in the assay with K562 was > 100 µM (inactive) in each case. Further, the 50% growth inhibitory concentration (GI50) was greater than 100 µM in the assay on HCT-15; > 100 µM (inactive) in the assay with LOX IMVI; > 100 µM (inactive) in the assay on SW-620; > 100 µM (inactive) in the assay with SN12C; > 100 µM (inactive) in the assay with MOLT-4; > 100 µM (inactive) in the assay with SK-OV-3. Also, the GI50 in the assay on SF-268 and in the assay on SNB-75 was > 100 µM (inactive) each time.

Consider `CC(=O)O[C@H]1[C@@H](OC(C)=O)C(C)(C)/C=C/[C@H](C)C(=O)[C@@]2(OC(C)=O)C[C@@](C)(OC(C)=O)[C@H](OC(C)=O)[C@@H]2[C@H]2OC(=O)CC[C@@]2(OC(=O)c2ccccc2)[C@@H]1OCC(C)C`, for which the GI50 was 4.11 µM (inactive) in the assay on HL-60; 8.73 µM (inactive) in the assay with CAKI-1; > 100 µM (inactive) in the assay on SK-MEL-2; 19.5 µM (inactive) in the assay with HCT-116; > 100 µM (inactive) in the assay with OVCAR-8; 5.47 µM (inactive) in the assay with SF-539. Also, the GI50 is > 100 µM (inactive) with OVCAR-3; 5.15 µM (inactive) with COLO 205; 33.5 µM (inactive) in the assay with SK-MEL-5; 11.2 µM (inactive) with CCRF-CEM; 80.4 µM (inactive) in the assay on U-251; 4.51 µM (inactive) with K562. For the same compound, the GI50 in the assay with HCT-15 is greater than 100 µM; in the assay with LOX IMVI, > 100 µM (inactive); with SW-620 it was 10.7 µM (inactive); in the assay with SN12C it was > 100 µM (inactive); in the assay with MOLT-4 it was 4.76 µM (inactive); in the assay with SK-OV-3 it was > 100 µM (inactive). The GI50 with SF-268 is > 100 µM (inactive); in the assay with SNB-75, 17.8 µM (inactive).

`C=C1CC(OC)(C(O)C(=O)N[C@H]2OCO[C@H]3C2O[C@H](C[C@@H](CO)OC)C(C)(C)C3OC)O[C@H](C)[C@@H]1C` (stereo not given in full): the GI50 in the assay on HL-60 was < 0.00931 µM (active); in the assay with CAKI-1, < 0.00931 µM (active); in the assay on SK-MEL-2, 0.0931 µM (active); in the assay on HCT-116 it was < 0.00931 µM (active); with OVCAR-8, < 0.00931 µM (active); in the assay with SF-539, < 0.00931 µM (active). Besides, the 50% growth inhibitory concentration (GI50) with OVCAR-3 is < 0.00931 µM (active); in the assay with COLO 205, < 0.00931 µM (active); with SK-MEL-5 it was < 0.00931 µM (active); in the assay with CCRF-CEM, 0.0125 µM (active); in the assay on U-251, < 0.00931 µM (active); in the assay on K562 it was < 0.00931 µM (active). Further, the GI50 with HCT-15 was less than 0.00931 µM; in the assay on LOX IMVI, < 0.00931 µM (active); with SW-620, < 0.00931 µM (active); in the assay with SN12C, < 0.00931 µM (active); in the assay with MOLT-4, 0.931 µM (active); in the assay with SK-OV-3 it was < 0.00931 µM (active). In addition, the GI50 in the assay with SF-268 and in the assay on SNB-75 was < 0.00931 µM (active) each time.

As to `Nc1c(C(=O)Nc2ccc(C3=NCCN3)cc2)cccc1C(=O)Nc1ccc(C2=NCCN2)cc1`, the GI50 is > 100 µM (inactive) in the assay on HL-60; > 100 µM (inactive) in the assay with CAKI-1; > 100 µM (inactive) in the assay with SK-MEL-2; > 100 µM (inactive) in the assay with HCT-116; 65.3 µM (inactive) in the assay on OVCAR-8; > 100 µM (inactive) with SF-539. The GI50 with OVCAR-3 was > 100 µM (inactive); with COLO 205, > 100 µM (inactive); in the assay with SK-MEL-5, > 100 µM (inactive); with CCRF-CEM, > 100 µM (inactive); in the assay with U-251 it was 53.5 µM (inactive); with K562, > 100 µM (inactive). Also, the GI50 with HCT-15 was greater than 100 µM; with LOX IMVI, > 100 µM (inactive); in the assay with SW-620, > 100 µM (inactive); in the assay with SN12C, > 88.1 µM (inactive); in the assay with MOLT-4 it was > 100 µM (inactive); in the assay with SK-OV-3, > 100 µM (inactive). Further, the GI50 with SF-268 is > 100 µM (inactive); in the assay on SNB-75 it was > 64.9 µM (inactive).
